Read-outs that look alike come from different tables or passages of the source.
Assays:
LN229 MGMT−/MMR− cells = test: Short-term cell viability assay, LN229 MGMT-/MMR- (shRNA targeting MSH2); format: cell-based, human; conditions: for IC50: Homo sapiens, read-out: IC50 against LN229 cell lines, MGMT− MMR−; for activity in MGMT−/MMR− cells, in words: LN229 MGMT−/MMR−
Method: LN229 MGMT- and MGMT+ cell lines were a gift from B. Kaina (Johannes Gutenberg University Mainz, Mainz, Germany) and grown in Gibco® Duilbecco's Modified Eagle Medium with 10% fetal bovine serum (DMEM). For each compound tested, the relationship between MGMT status and MMR status and compound activity, in terms of IC50 values ([…]), was determined by the following method. On day 1, LN229 isogenic cells of varying MGMT and MMR status were seeded in 96 well format at a density of 2000 cells/well in 100 μL of DMEM media and allowed to adhere overnight. On day 2, a drug master plate was made with 100×the desired maximal concentration of test compound and serially diluted by 2 until 100×the minimal desired concentration, with one DMSO control. Then daughter plates were created with varied concentrations from 3-times the minimal concentration to 3-times the maximal desired concentration. Afterwards, 50 μL of daughter drug plate was added to 100 μL of the seeded cells for a final concentration of 1×in triplicate. Cells were allowed to grow for 6 days. On day 7, the cells were fixed, and stained with Hoechst nuclear dye and imaged to determine growth inhibition.
For each compound tested, the relationship between MGMT status and MMR status and compound activity, in terms of IC50 values (in μM), was determined. In addition, for each compound, the therapeutic index (TI) was calculated, according to the equation MGMT TI=IC50 (MGMT+/MMR+) divided by IC50 (MGMT−/MMR+). […] MMR RI (resistance index)=IC50 (MGMT−/MMR−) divided by IC50 (MGMT−/MMR+).
Short-term Cell Viability Assay. Cells were seeded in 96-well plates at 1000 or 2000 cells/well and allowed to adhere at 23° C. for 60 min and then incubated overnight at 37° C. […] Cells were imaged on a Cytation 3 imaging reader (BioTek) and quantified using CellProfiler software. For in vitro short-term growth delay experiments, IC50 values were determined from the nonlinear regression equation, [inhibitor] vs normalized response with variable slope.

LN229 MGMT+ shMSH6 cells = test: Short-term viability assay, LN229 MGMT+ shMSH6; format: cell-based; conditions: Homo sapiens, LN-229, Table III, read-out: IC50 against LN229 cell lines, MGMT MMR−
Method: The activity of KL-50 in MGMT-LN229 cells engineered to lack expression of other key MMR proteins including MSH6, MLH1, PMS2, and MSH3 was also confirmed. Western blotting was performed in LN229 MGMT+/−cells with stable expression of shRNA targeting MSH6, MLH1, PMS2, or MSH3 to confirm depletion of the shRNA targets. In shMSH6 cells, there was reduced expression of MSH2, and in shMLH1 cells, there was loss of PMS2, due to destabilization in the setting of loss of their heterodimeric partners. GAPDH serves as loading control. […] Short-term viability assay curves for KL-50 in LN229 MGMT+/−, MMR+/shMSH6 cells. […] Short-term viability assay curves for KL-50 in LN229 MGMT+/−, MMR+/shMLH1 cells. […] Short-term viability assay curves for KL-50 in LN229 MGMT+/−, MMR+/shPMS2 cells. […] Short-term viability assay curves for KL-50 in LN229 MGMT+/−, MMR+/shMSH3 cells.
MMR Protein shRNA Knockdown. pGIPZ lentiviral shRNA vectors targeting MSH2, MSH6, MLH1, PMS2, and MSH3 were purchased from Horizon Discovery (Table IV). […]
Short-term Cell Viability Assay. […] Cells were imaged on a Cytation 3 imaging reader (BioTek) and quantified using CellProfiler software. For in vitro short-term growth delay experiments, IC50 values were determined from the nonlinear regression equation, [inhibitor] vs normalized response with variable slope.

[1] = test system: DLD1 colorectal adenocarcinoma cells (MSH6−); test: Short-term viability assay, DLD1 MSH6-deficient cells +/- O6BG; format: cell-based, human; conditions: with or without 10 μM O6BG pre-treatment (MGMT depletion)
Method: FIG. 1B: Short-term viability assay curves for KL-50 in DLD1 MSH6-deficient cells pre-treated with 0.01% DMSO control (CTR) or 10 μM O^6BG (+O^6BG) for 1 h prior to KL-50 addition. […] Short-term viability assay curves for (FIG. 1E) KL-50 in HCT116 MLH1−/−cells or (FIG. 1F) HCT116 cells complemented with chromosome 3 carrying wildtype MLH1 (+Chr3) pre-treated with 0.01% DMSO control or 10 μM O^6BG (+O^6BG) for 1 h prior to KL-50 addition. […] For these figures, points, mean; error bars, SD; n>3 technical replicates.
Short-term Cell Viability Assay. Cells were seeded in 96-well plates at 1000 or 2000 cells/well and allowed to adhere at 23° C. for 60 min and then incubated overnight at 37° C. Cells were treated with indicated concentrations of compounds in triplicate for 4-6 days prior to fixation with 3.7% paraformaldehyde and nuclear staining with 1 μg/mL Hoechst 33342 dye. Cells were imaged on a Cytation 3 imaging reader (BioTek) and quantified using CellProfiler software. For in vitro short-term growth delay experiments, IC50 values were determined from the nonlinear regression equation, [inhibitor] vs normalized response with variable slope.

MGMT−/MMR+ cells = test: IR alkaline comet assay, LN229 MGMT-/MMR+; format: cell-based, human; conditions: for IR-induced comet tail (ICL formation): 200 μM; for comet tailing in the absence of IR: TMZ 200 μM, KL-50 200 μM, MMC 0.1 or 50 μM
Method: The IR alkaline comet assay, adapted for ICL detection was performed to determine if ICLs were formed in MGMT-cells treated with KL-50. In this assay, cells were sequentially exposed to genotoxins and ionizing radiation, and then analyzed by single cell alkaline gel electrophoresis. Attenuation of the IR-induced comet tail is indicative of ICL formation.
IR Alkaline Comet Assay. This assay was performed utilizing the CometAssay™ Kit (Trevigen) according to the alkaline assay protocol, with the addition of slide irradiation post-lysis. Cells were trypsinized, washed with 1×PBS, added to melted Comet LMAgarose (Trevigen), and spread on Trevigen CometSlides at a density of 1000 cells per sample in 50 μL. Lysis solution (Trevigen) with 10% DMSO was added overnight at 4° C. […] Slides were then placed in alkaline buffer (200 mM NaOH, 1 mM EDTA) for 45 min, followed by electrophoresis in 850 mL alkaline buffer for 45 min at 4° C. Slides were washed and stained with SYBR gold (Invitrogen) per Trevigen assay protocol. Slides were imaged on a Cytation 3 imaging reader (BioTek), and comets were analyzed using CometScore 2.0 software (TriTek).

**Q.** Which IC50 (LN229 MGMT−/MMR− cells; LN-229, 144 h, Table 1, 6 days growth) does the source give for `Cn1nnc2c(C(N)=O)ncn2c1=O` [TMZ, 4-methyl-5-oxo-2,3,4,6,8-pentazabicyclo[4.3.0]nona-2,7,9-triene-9-carboxamide, reference compound] here?
**A.** Its IC50 is 838 ± 100 µM.

**Q.** What about the IC50 (LN229 MGMT−/MMR− cells; LN-229, Table II) of the same compound?
**A.** The IC50 was 838 ± 100 µM.

**Q.** And the “activity in MGMT−/MMR− cells, in words” value (LN229 MGMT−/MMR− cells)?
**A.** The value was “essentially inactive”.

**Q.** What about the IC50 (LN229 MGMT+ shMSH6 cells) of the same compound?
**A.** The IC50 was 929 ± 201 µM.

**Q.** What about the “cytotoxicity in DLD1 cells” value [1] of the same compound?
**A.** The value was “inactive”.

**Q.** And the “IR-induced comet tail (ICL formation)” value (MGMT−/MMR+ cells)?
**A.** The value was “did not reduce DNA migration following IR”.

**Q.** And the “comet tailing in the absence of IR” value (MGMT−/MMR+ cells)?
**A.** Its value is “induced tailing”.

**Q.** For `NC(=O)c1ncn2c(=O)n(CCF)nnc12` [KL-50], which IC50 (LN229 MGMT−/MMR− cells; LN-229, Table II) is on record?
**A.** The IC50 was 22 ± 6.9 µM.

**Q.** And the “activity in MGMT−/MMR− cells, in words” value (LN229 MGMT−/MMR− cells)?
**A.** The value was “exquisite sensitivity”.

**Q.** And the “MGMT− RI (resistance index)” value (LN229 MGMT−/MMR− cells; Table II, IC50 (MGMT−/MMR−) divided by IC50 (MGMT−/MMR+))?
**A.** Its value is 0.9.

**Q.** And the IC50 (LN229 MGMT+ shMSH6 cells)?
**A.** The IC50 was 362 ± 41 µM.

**Q.** And the “cytotoxicity in DLD1 cells” value [1]?
**A.** The value was “toxic to these cells, but only after O^6BG-induced MGMT depletion”.

**Q.** And the “IR-induced comet tail (ICL formation)” value (MGMT−/MMR+ cells)?
**A.** The value was “reduced the % DNA in the tail to levels similar to those seen for 0.1 μM MMC”.

**Q.** What about the “comet tailing in the absence of IR” value (MGMT−/MMR+ cells) of the same compound?
**A.** The value was “induced tailing”.

Reference: patent US20240294478A1, “ANTI-CANCER COMPOUNDS AND METHODS OF USE” (YALE UNIVERSITY, priority 2021, published 2024)
